From the kinase profiling compilation of Christmann-Franck et al. (2016) come the findings set out here.

Chain of PRKCH (human) (P24723 whole entry, looked up): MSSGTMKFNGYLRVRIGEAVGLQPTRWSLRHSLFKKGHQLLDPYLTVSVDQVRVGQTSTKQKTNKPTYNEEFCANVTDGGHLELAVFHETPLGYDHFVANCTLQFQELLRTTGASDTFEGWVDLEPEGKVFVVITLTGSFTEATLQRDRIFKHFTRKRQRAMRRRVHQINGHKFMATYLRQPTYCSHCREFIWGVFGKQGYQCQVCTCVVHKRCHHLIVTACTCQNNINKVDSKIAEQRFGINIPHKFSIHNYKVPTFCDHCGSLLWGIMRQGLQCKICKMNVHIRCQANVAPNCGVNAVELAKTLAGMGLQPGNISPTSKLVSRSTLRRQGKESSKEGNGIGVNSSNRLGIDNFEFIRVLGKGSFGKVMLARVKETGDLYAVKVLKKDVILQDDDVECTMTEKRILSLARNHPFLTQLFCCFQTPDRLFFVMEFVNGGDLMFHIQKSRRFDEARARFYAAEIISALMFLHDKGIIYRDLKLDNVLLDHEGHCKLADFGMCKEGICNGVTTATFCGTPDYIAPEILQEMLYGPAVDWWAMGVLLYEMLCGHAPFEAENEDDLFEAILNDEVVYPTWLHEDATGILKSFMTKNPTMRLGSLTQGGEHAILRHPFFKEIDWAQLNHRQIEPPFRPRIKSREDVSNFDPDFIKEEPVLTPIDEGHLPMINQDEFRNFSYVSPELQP

The target in the first experiment is TYRO3 (human) (UniProt Q06418). Put plainly: radiometric filter-binding kinase assay, Kinase HotSpot. Conditions: compound 0.5 µM; ATP 10 µM.
Broadly, the residual activity is the signal under treatment as a percentage of the control signal. For `CC#CC(=O)Nc1cc2c(Nc3ccc(F)c(Cl)c3)ncnc2cn1`, the residual activity was determined as 100%.

On to `CC(=O)c1ccc(N2CCOCC2)cc1O`, for which the residual activity turned out to be 89.1%.

The target in the next experiment is DYRK2 (human) (UniProt Q92630). The experiment is described as above. Conditions: compound 0.5 µM; ATP 10 µM.
With `O=c1cc(N2CCOCC2)oc2c1ccc1ccccc12`, the residual activity stood at 88.9%.

As to `CC#CC(=O)Nc1cc2c(Nc3ccc(F)c(Cl)c3)ncnc2cn1`, the residual activity was 91.3%.

`CC(=O)c1ccc(N2CCOCC2)cc1O`: the residual activity is 101%.

Another experiment addresses NEK11 (human) (UniProt Q8NG66). Described as above. Particulars: compound 0.5 µM; ATP 10 µM.
With `O=c1cc(N2CCOCC2)oc2c1ccc1ccccc12`, the residual activity came to 99.1%.

Consider `CC#CC(=O)Nc1cc2c(Nc3ccc(F)c(Cl)c3)ncnc2cn1`, for which the residual activity was found to be 86.6%.

Take `CC(=O)c1ccc(N2CCOCC2)cc1O`: the residual activity worked out at 98.6%.

In the next experiment the target is EPHA8 (human) (UniProt P29322). The description is as above. Conditions: compound 0.5 µM; ATP 10 µM.
As to `O=c1cc(N2CCOCC2)oc2c1ccc1ccccc12`, the residual activity came to 101%.

Consider `CC#CC(=O)Nc1cc2c(Nc3ccc(F)c(Cl)c3)ncnc2cn1`, for which the residual activity was 100%.

As for `CC(=O)c1ccc(N2CCOCC2)cc1O`, the residual activity came to 101%.

In another experiment the target is PRKCD (human) (UniProt Q05655). Described as above. Conditions: compound 0.5 µM; ATP 10 µM.
Chain of PRKCD (human) (Q05655 whole entry, looked up): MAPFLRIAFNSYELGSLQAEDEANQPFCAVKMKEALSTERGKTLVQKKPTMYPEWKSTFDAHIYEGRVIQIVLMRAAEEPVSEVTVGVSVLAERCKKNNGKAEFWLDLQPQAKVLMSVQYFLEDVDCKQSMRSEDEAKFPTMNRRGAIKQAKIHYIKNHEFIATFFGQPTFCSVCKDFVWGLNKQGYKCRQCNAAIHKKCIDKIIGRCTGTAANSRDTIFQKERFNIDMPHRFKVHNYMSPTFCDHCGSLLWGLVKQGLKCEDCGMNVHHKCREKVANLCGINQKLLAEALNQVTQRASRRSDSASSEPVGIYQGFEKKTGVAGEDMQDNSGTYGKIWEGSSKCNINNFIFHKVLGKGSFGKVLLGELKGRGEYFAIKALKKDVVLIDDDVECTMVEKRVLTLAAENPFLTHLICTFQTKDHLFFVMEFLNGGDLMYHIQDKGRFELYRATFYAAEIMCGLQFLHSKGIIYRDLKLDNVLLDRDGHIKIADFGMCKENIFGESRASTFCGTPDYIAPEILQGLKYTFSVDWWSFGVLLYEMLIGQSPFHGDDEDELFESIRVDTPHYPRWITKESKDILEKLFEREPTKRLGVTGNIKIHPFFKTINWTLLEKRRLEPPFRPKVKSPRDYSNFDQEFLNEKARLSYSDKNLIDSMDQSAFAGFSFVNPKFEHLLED
As for `O=c1cc(N2CCOCC2)oc2c1ccc1ccccc12`, the residual activity was determined as 95.1%.

Turning to `CC#CC(=O)Nc1cc2c(Nc3ccc(F)c(Cl)c3)ncnc2cn1`, the residual activity is 99.8%.

Consider `CC(=O)c1ccc(N2CCOCC2)cc1O`, for which the residual activity worked out at 97.4%.

The next experiment concerns the target PIM3 (human) (UniProt Q86V86). Described as above. Conditions: compound 0.5 µM; ATP 10 µM.
For the compound `O=c1cc(N2CCOCC2)oc2c1ccc1ccccc12`, the residual activity was 95.4%.

With `CC#CC(=O)Nc1cc2c(Nc3ccc(F)c(Cl)c3)ncnc2cn1`, the residual activity came out at 89.1%.

Turning to `CC(=O)c1ccc(N2CCOCC2)cc1O`, the residual activity was found to be 115%.

For the next experiment, the target named is FGR (human) (UniProt P09769). Described as above. Particulars: compound 0.5 µM; ATP 10 µM.
Chain of FGR (human) (P09769 whole entry, looked up): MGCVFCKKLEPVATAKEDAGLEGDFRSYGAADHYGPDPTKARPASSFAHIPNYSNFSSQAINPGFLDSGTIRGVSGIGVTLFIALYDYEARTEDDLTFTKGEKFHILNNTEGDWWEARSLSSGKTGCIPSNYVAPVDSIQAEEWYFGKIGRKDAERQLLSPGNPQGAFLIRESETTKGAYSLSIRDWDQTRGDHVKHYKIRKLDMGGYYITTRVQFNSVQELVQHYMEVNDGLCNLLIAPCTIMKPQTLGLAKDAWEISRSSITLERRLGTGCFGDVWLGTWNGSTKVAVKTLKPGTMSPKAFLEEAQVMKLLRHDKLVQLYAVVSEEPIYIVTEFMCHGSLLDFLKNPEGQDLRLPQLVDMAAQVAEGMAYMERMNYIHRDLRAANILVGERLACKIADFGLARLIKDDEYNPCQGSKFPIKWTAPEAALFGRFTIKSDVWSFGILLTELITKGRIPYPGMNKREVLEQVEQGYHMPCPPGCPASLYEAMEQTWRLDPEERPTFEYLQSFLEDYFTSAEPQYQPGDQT
For the compound `O=c1cc(N2CCOCC2)oc2c1ccc1ccccc12`, the residual activity was found to be 94.6%.

Turning to `CC#CC(=O)Nc1cc2c(Nc3ccc(F)c(Cl)c3)ncnc2cn1`, the residual activity came to 89.6%.

Regarding `CC(=O)c1ccc(N2CCOCC2)cc1O`, the residual activity is 95.6%.

Another experiment deals with ULK1 (human) (UniProt O75385). The experiment is described as above. Conditions: compound 0.5 µM; ATP 10 µM.
As to `O=c1cc(N2CCOCC2)oc2c1ccc1ccccc12`, the residual activity came to 96.1%.

On to `CC#CC(=O)Nc1cc2c(Nc3ccc(F)c(Cl)c3)ncnc2cn1`, for which the residual activity amounted to 96.6%.

Regarding `CC(=O)c1ccc(N2CCOCC2)cc1O`, the residual activity was 94.8%.

A further experiment has as its target CSNK1D (human) (UniProt P48730). The experiment is described as above. Particulars: compound 0.5 µM; ATP 10 µM.
Regarding `O=c1cc(N2CCOCC2)oc2c1ccc1ccccc12`, the residual activity was 97.9%.

Turning to `CC#CC(=O)Nc1cc2c(Nc3ccc(F)c(Cl)c3)ncnc2cn1`, the residual activity was determined as 99.3%.

Take `CC(=O)c1ccc(N2CCOCC2)cc1O`: the residual activity amounted to 100%.

The target of another experiment is MARK3 (human) (UniProt P27448). The experiment is described as above. Particulars: compound 0.5 µM; ATP 10 µM.
Chain of MARK3 (human) (P27448 whole entry, looked up): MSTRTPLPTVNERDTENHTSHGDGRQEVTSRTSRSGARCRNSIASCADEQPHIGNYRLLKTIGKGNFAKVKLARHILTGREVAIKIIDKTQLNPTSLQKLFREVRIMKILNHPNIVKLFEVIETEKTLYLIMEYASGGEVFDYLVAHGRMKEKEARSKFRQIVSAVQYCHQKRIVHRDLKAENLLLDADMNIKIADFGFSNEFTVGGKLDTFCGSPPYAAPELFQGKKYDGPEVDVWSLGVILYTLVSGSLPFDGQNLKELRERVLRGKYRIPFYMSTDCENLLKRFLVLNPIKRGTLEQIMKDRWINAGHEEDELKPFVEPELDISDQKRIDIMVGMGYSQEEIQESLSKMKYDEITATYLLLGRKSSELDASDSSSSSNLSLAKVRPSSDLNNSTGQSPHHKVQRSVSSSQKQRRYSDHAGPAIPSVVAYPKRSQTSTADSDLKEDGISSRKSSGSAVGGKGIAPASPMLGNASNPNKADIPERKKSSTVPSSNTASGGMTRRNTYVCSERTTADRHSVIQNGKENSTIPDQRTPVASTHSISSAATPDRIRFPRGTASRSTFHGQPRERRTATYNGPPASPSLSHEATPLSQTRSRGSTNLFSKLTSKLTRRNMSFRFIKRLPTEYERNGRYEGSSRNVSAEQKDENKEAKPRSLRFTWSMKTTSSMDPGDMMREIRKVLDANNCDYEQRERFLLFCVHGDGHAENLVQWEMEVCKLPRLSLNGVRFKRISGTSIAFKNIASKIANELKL
Turning to `O=c1cc(N2CCOCC2)oc2c1ccc1ccccc12`, the residual activity was determined as 110%.

As for `CC#CC(=O)Nc1cc2c(Nc3ccc(F)c(Cl)c3)ncnc2cn1`, the residual activity worked out at 107%.

For `CC(=O)c1ccc(N2CCOCC2)cc1O`, the residual activity stood at 108%.

Another experiment deals with MATK (human) (UniProt P42679). The description is as above. Conditions: compound 0.5 µM; ATP 10 µM.
`O=c1cc(N2CCOCC2)oc2c1ccc1ccccc12`: the residual activity came to 90.7%.

Consider `CC#CC(=O)Nc1cc2c(Nc3ccc(F)c(Cl)c3)ncnc2cn1`, for which the residual activity stood at 95.8%.

Take `CC(=O)c1ccc(N2CCOCC2)cc1O`: the residual activity turned out to be 92.1%.

The next experiment deals with INSR (human) (UniProt P06213). Described as above. Conditions: compound 0.5 µM; ATP 10 µM.
For the compound `O=c1cc(N2CCOCC2)oc2c1ccc1ccccc12`, the residual activity stood at 92.3%.

For `CC#CC(=O)Nc1cc2c(Nc3ccc(F)c(Cl)c3)ncnc2cn1`, the residual activity came to 99.6%.

As for `CC(=O)c1ccc(N2CCOCC2)cc1O`, the residual activity is 94%.

The next experiment has as its target ABL2 (human) (UniProt P42684). The description is as above. Particulars: compound 0.5 µM; ATP 10 µM.
Consider `O=c1cc(N2CCOCC2)oc2c1ccc1ccccc12`, for which the residual activity turned out to be 101%.

For `CC#CC(=O)Nc1cc2c(Nc3ccc(F)c(Cl)c3)ncnc2cn1`, the residual activity is 89.4%.

With `CC(=O)c1ccc(N2CCOCC2)cc1O`, the residual activity is 104%.

A further experiment concerns the target FER (human) (UniProt P16591). The description is as above. Conditions: compound 0.5 µM; ATP 10 µM.
In the case of `O=c1cc(N2CCOCC2)oc2c1ccc1ccccc12`, the residual activity worked out at 91.2%.

For the compound `CC#CC(=O)Nc1cc2c(Nc3ccc(F)c(Cl)c3)ncnc2cn1`, the residual activity was 98.2%.

For `CC(=O)c1ccc(N2CCOCC2)cc1O`, the residual activity was determined as 90.4%.

In another experiment the target is STK11 (human) (UniProt Q15831). The experiment is described as above. Conditions: compound 0.5 µM; ATP 10 µM.
Take `O=c1cc(N2CCOCC2)oc2c1ccc1ccccc12`: the residual activity is 104%.

As to `CC#CC(=O)Nc1cc2c(Nc3ccc(F)c(Cl)c3)ncnc2cn1`, the residual activity amounted to 99.6%.

With `CC(=O)c1ccc(N2CCOCC2)cc1O`, the residual activity turned out to be 103%.

Another experiment addresses MAP2K2 (human) (UniProt P36507). The experiment is described as above. Conditions: compound 0.5 µM; ATP 10 µM.
Take `O=c1cc(N2CCOCC2)oc2c1ccc1ccccc12`: the residual activity was 100%.

`CC#CC(=O)Nc1cc2c(Nc3ccc(F)c(Cl)c3)ncnc2cn1`: the residual activity is 106%.

For `CC(=O)c1ccc(N2CCOCC2)cc1O`, the residual activity was 99.8%.

The next experiment has as its target CDK9 CCNK (human) (UniProt O75909+P50750). The experiment is described as above. Particulars: compound 0.5 µM; ATP 10 µM.
`O=c1cc(N2CCOCC2)oc2c1ccc1ccccc12`: the residual activity was 99.9%.

On to `CC#CC(=O)Nc1cc2c(Nc3ccc(F)c(Cl)c3)ncnc2cn1`, for which the residual activity turned out to be 98.4%.

For `CC(=O)c1ccc(N2CCOCC2)cc1O`, the residual activity was found to be 106%.

In the next experiment the target is NUAK2 (human) (UniProt Q9H093). Described as above. Particulars: compound 0.5 µM; ATP 10 µM.
Chain of NUAK2 (human) (Q9H093 whole entry, looked up): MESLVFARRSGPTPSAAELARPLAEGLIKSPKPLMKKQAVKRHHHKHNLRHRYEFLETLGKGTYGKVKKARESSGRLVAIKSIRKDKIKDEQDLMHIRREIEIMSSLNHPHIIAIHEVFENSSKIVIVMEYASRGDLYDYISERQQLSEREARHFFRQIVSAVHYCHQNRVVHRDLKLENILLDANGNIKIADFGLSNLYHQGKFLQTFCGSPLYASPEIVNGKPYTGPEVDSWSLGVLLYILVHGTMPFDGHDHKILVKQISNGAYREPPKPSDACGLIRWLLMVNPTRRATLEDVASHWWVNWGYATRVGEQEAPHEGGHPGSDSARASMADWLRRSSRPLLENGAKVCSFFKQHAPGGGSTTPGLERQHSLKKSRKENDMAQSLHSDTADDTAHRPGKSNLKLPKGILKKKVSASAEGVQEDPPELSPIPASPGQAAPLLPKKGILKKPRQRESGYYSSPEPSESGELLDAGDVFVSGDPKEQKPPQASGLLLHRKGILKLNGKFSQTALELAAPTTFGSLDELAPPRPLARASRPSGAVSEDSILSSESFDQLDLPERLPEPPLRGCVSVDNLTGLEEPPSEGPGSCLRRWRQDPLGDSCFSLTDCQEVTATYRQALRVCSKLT
As for `O=c1cc(N2CCOCC2)oc2c1ccc1ccccc12`, the residual activity was determined as 120%.

With `CC#CC(=O)Nc1cc2c(Nc3ccc(F)c(Cl)c3)ncnc2cn1`, the residual activity worked out at 95.4%.

On to `CC(=O)c1ccc(N2CCOCC2)cc1O`, for which the residual activity worked out at 104%.

The next experiment addresses PRKCH (human) (UniProt P24723). The experiment is described as above. Conditions: compound 0.5 µM; ATP 10 µM.
For the compound `O=c1cc(N2CCOCC2)oc2c1ccc1ccccc12`, the residual activity is 94.7%.

In the case of `CC#CC(=O)Nc1cc2c(Nc3ccc(F)c(Cl)c3)ncnc2cn1`, the residual activity turned out to be 90.4%.

As for `CC(=O)c1ccc(N2CCOCC2)cc1O`, the residual activity is 99.3%.

The target of a further experiment is PAK7 (human) (UniProt Q9P286). Described as above. Particulars: compound 0.5 µM; ATP 10 µM.
Chain of PAK7 (human) (Q9P286 whole entry, looked up): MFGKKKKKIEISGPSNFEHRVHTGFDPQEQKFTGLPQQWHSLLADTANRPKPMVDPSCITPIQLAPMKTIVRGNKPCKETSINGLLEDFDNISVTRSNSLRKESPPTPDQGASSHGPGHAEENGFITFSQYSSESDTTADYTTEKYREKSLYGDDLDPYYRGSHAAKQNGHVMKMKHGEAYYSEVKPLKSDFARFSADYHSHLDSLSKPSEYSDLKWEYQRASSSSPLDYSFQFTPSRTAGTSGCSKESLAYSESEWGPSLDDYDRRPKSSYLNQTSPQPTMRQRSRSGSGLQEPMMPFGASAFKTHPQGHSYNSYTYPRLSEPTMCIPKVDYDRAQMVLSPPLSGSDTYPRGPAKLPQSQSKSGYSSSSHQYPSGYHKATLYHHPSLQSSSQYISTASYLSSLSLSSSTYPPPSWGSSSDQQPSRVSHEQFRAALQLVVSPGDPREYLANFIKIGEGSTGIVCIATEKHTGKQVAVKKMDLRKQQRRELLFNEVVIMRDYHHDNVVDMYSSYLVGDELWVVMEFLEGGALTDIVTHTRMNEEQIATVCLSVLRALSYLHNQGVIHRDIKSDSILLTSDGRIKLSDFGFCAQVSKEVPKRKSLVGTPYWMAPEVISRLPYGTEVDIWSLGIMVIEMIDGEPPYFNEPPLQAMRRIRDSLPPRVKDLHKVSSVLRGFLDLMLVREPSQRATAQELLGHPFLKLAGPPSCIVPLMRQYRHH
Consider `O=c1cc(N2CCOCC2)oc2c1ccc1ccccc12`, for which the residual activity worked out at 108%.

In the case of `CC#CC(=O)Nc1cc2c(Nc3ccc(F)c(Cl)c3)ncnc2cn1`, the residual activity came to 102%.

With `CC(=O)c1ccc(N2CCOCC2)cc1O`, the residual activity was determined as 102%.

For a further experiment, the target named is MAP3K10 (human) (UniProt Q02779). The description is as above. Particulars: compound 0.5 µM; ATP 10 µM.
Chain of MAP3K10 (human) (Q02779 whole entry, looked up): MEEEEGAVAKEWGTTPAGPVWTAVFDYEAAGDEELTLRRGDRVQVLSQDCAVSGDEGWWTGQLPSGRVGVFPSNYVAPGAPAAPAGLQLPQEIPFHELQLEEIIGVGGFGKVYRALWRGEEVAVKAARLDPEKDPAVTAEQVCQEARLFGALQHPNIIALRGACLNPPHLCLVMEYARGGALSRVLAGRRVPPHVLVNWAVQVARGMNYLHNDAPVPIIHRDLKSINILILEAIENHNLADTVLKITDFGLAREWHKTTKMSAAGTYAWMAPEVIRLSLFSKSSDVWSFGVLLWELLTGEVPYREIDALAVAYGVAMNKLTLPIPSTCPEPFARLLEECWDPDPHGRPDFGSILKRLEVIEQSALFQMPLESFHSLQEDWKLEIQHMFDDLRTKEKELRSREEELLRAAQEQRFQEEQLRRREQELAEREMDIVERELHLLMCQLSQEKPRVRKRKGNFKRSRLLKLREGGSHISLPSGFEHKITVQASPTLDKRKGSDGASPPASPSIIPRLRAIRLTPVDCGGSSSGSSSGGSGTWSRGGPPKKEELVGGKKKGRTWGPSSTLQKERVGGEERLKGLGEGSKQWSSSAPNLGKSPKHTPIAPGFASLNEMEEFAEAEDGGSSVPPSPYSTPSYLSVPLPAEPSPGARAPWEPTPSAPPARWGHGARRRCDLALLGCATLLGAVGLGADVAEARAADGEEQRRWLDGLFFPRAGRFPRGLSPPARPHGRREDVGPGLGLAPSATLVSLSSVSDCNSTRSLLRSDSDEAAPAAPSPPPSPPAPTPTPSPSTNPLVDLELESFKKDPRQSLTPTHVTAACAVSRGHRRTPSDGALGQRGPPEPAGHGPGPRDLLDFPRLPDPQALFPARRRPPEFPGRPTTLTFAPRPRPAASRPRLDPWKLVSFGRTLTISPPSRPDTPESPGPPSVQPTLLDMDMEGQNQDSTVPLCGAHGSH
Turning to `O=c1cc(N2CCOCC2)oc2c1ccc1ccccc12`, the residual activity was 102%.

Consider `CC#CC(=O)Nc1cc2c(Nc3ccc(F)c(Cl)c3)ncnc2cn1`, for which the residual activity worked out at 98.9%.

Regarding `CC(=O)c1ccc(N2CCOCC2)cc1O`, the residual activity was 104%.
